Earlier results in patent US20210215697A1, “Serum Biomarkers” (BerGenBio ASA, priority 2018, published 2021).

Assays:
OCI-AML5 cells = conditions: Ben-Batalla et al, 2013

## Nc1nc(Nc2ccc3c(c2)CC[C@@H](N2CCCC2)CC3)nn1-c1cc2c(nn1)-c1ccccc1CCC2 [BGB324, 1-(6,7-dihydro-5H-benzo[6,7]cyclohepta[1,2-c]pyridazin-3-yl)-N3-((7-(S)-pyrrolidin-1-yl)-6,7,8,9-tetrahydro-5H-benzo[7]annulene-2-yl)-1H-1,2,4-triazole-3,5-diamine]
OCI-AML5 cells
  IC50 to Axl inhibitors (in words): high
Kasumi cell line; Ben-Batalla et al, 2013
  IC50 to Axl inhibitors (in words): high
Mv4-11 cell line; Mv4-11, Ben-Batalla et al, 2013
  IC50 to Axl inhibitors (in words): low
MOLM13 cell line; MOLM13, Ben-Batalla et al, 2013
  IC50 to Axl inhibitors (in words): low
OCI-M1 cell line; OCI-M1, Ben-Batalla et al, 2013
  IC50 to Axl inhibitors (in words): high

## Nc1nc(Nc2ccc3c(c2)CC[C@@H](N2CCCC2)CC3)nn1-c1cc2c(nn1)-c1ccccc1CCC2 [BGB324/R428/bemcentinib, bemcentinib]
Kasumi cell line; "non-responder" AML cell line
  IC50: 1200 nM
Mv4-11 cell line; Mv4-11, "responder" AML cell line
  IC50: 140 nM
MOLM13 cell line; MOLM13, "responder" AML cell line
  IC50: 450 nM
OCI-M1 cell line; OCI-M1, "non-responder" AML cell line
  IC50: 1800 nM
